Source: publication PMC6811539, “Minute-scale persistence of a GPCR conformation state triggered by non-cognate G protein interactions primes signaling” (Nature Communications, 2019)

Legend:
β2-AR-mCer = biological target: T1, β2-AR-mCer (Homo sapiens, UniProt P07550); assay: competition pull-down assay, displacement of PC-Qp (fragments) from β2-AR-mCer membranes; format: binding; conditions: PC-Qp 50 μM; thirty seconds after UV irradiation
T1 construct: expressed in transfected cells; host or cells: native membranes of transiently transfected HEK293T cells
Experimental: Native membranes were prepared from cells expressing β2-mCer and were stored in sucrose-supplemented buffer A as described above (Membrane preparations). Membranes were sonicated (3× bursts, 15 s with 1 min pauses) and resuspended in ΔFRET buffer minus Ca^2+ to a concentration of 10 nM receptor based on fluorescence counts. bioQp (30 μM)/30 μM bioQp + 30 μM Qp/30 μM bioQp + 50 μM Qp, and 100 μM isoproterenol were added and mixed for 5 min. Samples were split into duplicates, one of which was not manipulated in any way to obtain the total receptor counts. To the other tube, 20 μl of 0.4 mg/ml streptavidin-coated magnetic beads were added, mixed, and precipitated using a Neodymium disc magnet N52 (20 × 40 mm). Supernatant was removed to a fresh micro-centrifuge tube to monitor fluorescence of receptors not bound to the beads. Percentage of receptors bound to the beads was calculated by subtracting the unbound from the total (duplicate). The experiment was repeated with UV exposure for 2 min, followed by the addition and pulldown using the magnetic beads.

[1] = extent of photocleavage of PC-Qp by MALDI-MS; format: physicochemical; set-up: Conc. App: unit: μM; conditions: for concentration of full-length PC-Qp: 50 μM input, native membranes, MALDI-MS, mean of three experiments; for Conc. App: PC-Qp full length; for PC-Qp full length (fraction, MALDI-MS): plus UV (350 nm, 2 min)
Experimental: Native membranes were prepared from cells expressing β2-mCer and were stored in sucrose-supplemented buffer A as described above (Membrane preparations). […]. Both samples were centrifuged 100,000 × g, 5 min, 4 °C to sediment the membrane. Supernatants were stored on ice for analysis by MS. Control samples containing 50 μM peptide in the buffer were also prepared.
Prior to matrix-assisted laser desorption and ionization time-of-flight MS (MALDI-TOF MS) analysis, the samples were desalted using C18 ZipTips (Millipore Corporation, Billerica, MA). The manufacturer’s standard protocol for peptide clean-up was followed. After elution from the ZipTip, 1 μL of each sample was spotted on a MALDI-TOF 384 spot stainless-steel target (Bruker Daltonics, Billerica, MA) and mixed with 1 μl of α-cyano-4-hydroxy-cinnamic acid (α-CHCA) matrix (15 mg/ml α-CHCA in 50% acetonitrile). Each spot was allowed to dry at room temperature. The target was placed in a Bruker Autoflex Speed MALDI-TOF mass spectrometer (Bruker Daltonics, Billerica, MA) equipped with a Nd-YAG 355 nm pulsed laser. The data were collected in reflectron mode, positive polarity, with an accelerating potential of 19 kV. Each spectrum was the accumulation of 4000 laser shots with complete spot raster of the laser during data collection. External calibration was performed using 0.5 μl α-CHCA and 0.5 μl of peptide standard (part# 206195, Bruker Daltonics, Billerica, MA) with Angiotensin II (monoisotopic mass [MH^+ ] 1046.5418), Angiotensin I (monoisotopic mass [MH^+ ] 1296.6848), SubstanceP (monoisotopic mass [MH^+] 1347.7354), Bombesin (monoisotopic mass [MH^+] 1619.8223), ACTH clip 1–17 (monoisotopic mass [MH^+] 2093.0862), ACTH clip 18–39 (monoisotopic mass [MH^+] 2465.1983), and Somatostatin 28 (monoisotopic mass [MH^+] 3147.4710). The Bruker data files were converted to mzXML files using MSConvertGUI tool in ProteoWizard open-source software. The mzXML files were viewed and analyzed with mMass v5.5 open-source software.

[2] = +UV (second block), replicate #1
[3] = +UV (second block), replicate #2
[4] = +UV (second block), replicate #3
[5] = −UV (first block), replicate #1
[6] = −UV (first block), replicate #2
[7] = −UV (first block), replicate #3

## DTENIRFVFAAVKDTILQLNLKE(Anp)NLV [PC-Qp, photocleavable Qp, Y356 replaced by Anp]
β2-AR-mCer
  competition with bioQp for receptor binding: no longer competes with bioQp for interaction with the receptor
[1]; +UV (350 nm, 2 min)
  concentration of full-length PC-Qp: 4.582 µM
[1]; [2]
  % cleavage: 90.1408%
  % uncleaved: 9.859%
  Conc. App: 4.93
[1]; [3]
  % cleavage: 90.4762%
  % uncleaved: 9.524%
  Conc. App: 4.7619
[1]; [4]
  % cleavage: 91.8919%
  % uncleaved: 8.108%
  Conc. App: 4.054
[1]; [5]
  Conc. App: 33.3333
  % cleavage: 33.3333%
  % uncleaved: 66.6667%
[1]; [6]
  Conc. App: 37.7551
  % cleavage: 24.4898%
  % uncleaved: 75.5102%
[1]; [7]
  Conc. App: 30.7692
  % cleavage: 38.4615%
  % uncleaved: 61.5385%
[1]; replicate 1
  PC-Qp full length (fraction, MALDI-MS): 0.098
[1]; replicate 2
  PC-Qp full length (fraction, MALDI-MS): 0.095
[1]; replicate 3
  PC-Qp full length (fraction, MALDI-MS): 0.081
[1]; −UV
  concentration of full-length PC-Qp: 33.9526 µM
